{
  "source": "paper PMC7614683",
  "about": "“A small molecule PI3Kα activator for cardioprotection and neuroregeneration” (Nature, 2023)",
  "assay_in_all_cases": "SelectScreen Z-LYTE kinase activity assay (SI Table 6)",
  "format_in_all_cases": "biochemical",
  "key": {"[1]": {"biological_target": "T1, protein kinases of the Z-LYTE panel (Homo sapiens, UniProt O00141)", "T1 sequence (O00141 1-431)": "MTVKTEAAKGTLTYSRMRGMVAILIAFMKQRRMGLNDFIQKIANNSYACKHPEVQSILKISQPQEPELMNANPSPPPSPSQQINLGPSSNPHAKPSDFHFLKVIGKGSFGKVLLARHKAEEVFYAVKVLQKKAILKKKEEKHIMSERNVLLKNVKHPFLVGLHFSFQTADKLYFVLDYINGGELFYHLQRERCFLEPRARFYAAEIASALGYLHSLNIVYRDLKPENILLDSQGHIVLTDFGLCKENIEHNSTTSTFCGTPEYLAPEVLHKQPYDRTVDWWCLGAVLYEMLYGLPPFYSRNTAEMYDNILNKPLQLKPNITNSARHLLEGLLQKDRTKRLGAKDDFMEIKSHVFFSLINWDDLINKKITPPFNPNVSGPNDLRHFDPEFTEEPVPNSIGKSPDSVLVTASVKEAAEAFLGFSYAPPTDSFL", "method_in_brief": "(§1)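 Percent effect values derive from SelectScreen Adapta, Lantha and Z-LYTE assays in which 1938 was present at 1 μM, spanning 133 protein kinases and 7 lipid kinases.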"}, "[2]": {"biological_target": "T2, protein kinases of the Z-LYTE panel (Homo sapiens, UniProt P51813)", "T2 sequence (P51813 1-675)": "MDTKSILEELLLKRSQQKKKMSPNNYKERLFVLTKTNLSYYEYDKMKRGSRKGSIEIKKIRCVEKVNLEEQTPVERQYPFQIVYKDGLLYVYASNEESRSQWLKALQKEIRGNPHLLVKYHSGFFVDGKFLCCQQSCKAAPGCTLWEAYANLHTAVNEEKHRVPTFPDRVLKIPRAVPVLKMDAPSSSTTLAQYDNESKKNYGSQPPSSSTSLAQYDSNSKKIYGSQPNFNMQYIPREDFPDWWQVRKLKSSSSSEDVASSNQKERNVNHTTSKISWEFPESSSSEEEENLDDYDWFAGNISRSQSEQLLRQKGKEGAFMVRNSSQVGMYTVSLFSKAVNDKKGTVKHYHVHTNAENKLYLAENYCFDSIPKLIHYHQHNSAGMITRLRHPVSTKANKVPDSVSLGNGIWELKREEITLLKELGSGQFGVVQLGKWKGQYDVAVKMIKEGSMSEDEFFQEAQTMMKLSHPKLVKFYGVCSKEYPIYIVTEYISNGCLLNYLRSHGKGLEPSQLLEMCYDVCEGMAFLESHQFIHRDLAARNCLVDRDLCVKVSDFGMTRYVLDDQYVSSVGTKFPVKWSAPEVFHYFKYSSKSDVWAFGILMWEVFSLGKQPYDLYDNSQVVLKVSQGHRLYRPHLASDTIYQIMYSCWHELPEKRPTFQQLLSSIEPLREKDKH", "method_in_brief": "as §1"}, "[3]": {"biological_target": "protein kinases of the Z-LYTE panel (Homo sapiens, UniProt Q13177)", "sequence (Q13177 whole entry)": "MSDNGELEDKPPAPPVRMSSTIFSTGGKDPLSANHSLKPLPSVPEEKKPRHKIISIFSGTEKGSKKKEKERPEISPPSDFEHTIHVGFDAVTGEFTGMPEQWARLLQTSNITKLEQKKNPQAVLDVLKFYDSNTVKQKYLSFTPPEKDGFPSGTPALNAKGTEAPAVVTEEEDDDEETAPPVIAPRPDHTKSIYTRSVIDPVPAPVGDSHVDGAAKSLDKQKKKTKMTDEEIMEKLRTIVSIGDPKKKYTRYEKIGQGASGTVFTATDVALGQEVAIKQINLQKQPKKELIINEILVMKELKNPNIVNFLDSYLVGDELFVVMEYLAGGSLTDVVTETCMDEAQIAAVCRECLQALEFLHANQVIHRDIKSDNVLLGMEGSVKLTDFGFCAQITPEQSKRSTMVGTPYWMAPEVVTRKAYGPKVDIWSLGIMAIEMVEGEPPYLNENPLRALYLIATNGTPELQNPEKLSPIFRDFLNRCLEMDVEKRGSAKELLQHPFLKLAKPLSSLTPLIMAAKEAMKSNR", "method_in_brief": "as §1"}},
  "note": "Like-named read-outs stand apart in the source and are kept apart here.",
  "data": [
    {"compound": "CCN1CCN(c2ccc(Nc3cc(Nc4cccc5c4N(C(C)=O)CC5)ccn3)cc2)CC1", "note": "[Compound 1938]", "values": [
      {"measurement": "inhibition at 1 µM", "setting": "[1]; read-out: % Inhibition Point 1", "value": 4.46, "unit": "%"},
      {"measurement": "inhibition at 1 µM", "setting": "[1]; read-out: % Inhibition Point 2", "value": 3.55, "unit": "%"},
      {"measurement": "inhibition at 1 µM", "setting": "[1]; read-out: % Inhibition mean", "value": 4, "unit": "%"},
      {"measurement": "inhibition at 1 µM", "setting": "[2]; read-out: % Inhibition Point 1", "value": 19, "unit": "%"},
      {"measurement": "inhibition at 1 µM", "setting": "[2]; read-out: % Inhibition Point 2", "value": 25, "unit": "%"},
      {"measurement": "inhibition at 1 µM", "setting": "[2]; read-out: % Inhibition mean", "value": 22, "unit": "%"},
      {"measurement": "inhibition at 1 µM", "setting": "[3]; read-out: % Inhibition Point 1", "value": 5, "unit": "%"},
      {"measurement": "inhibition at 1 µM", "setting": "[3]; read-out: % Inhibition Point 2", "value": 4.68, "unit": "%"},
      {"measurement": "inhibition at 1 µM", "setting": "[3]; read-out: % Inhibition mean", "value": 5, "unit": "%"}
    ]}
  ]
}
